Reference: patent US4351829A, “Use of polypeptides as analgesic drugs” (Farmitalia Carlo Erba Spa, priority 1980, dated 1982)
Like-named read-outs stand apart in the source and are kept apart here. Square brackets hold non-standard residues; d marks the D form. Peptide text beside a SMILES is read from it. sY = N[C@@H](Cc1ccc(OS(=O)(=O)O)cc1)C(=O)O; pGlu = O=C1CC[C@@H](C(=O)O)N1

Assays:
[1] = cancer patients; intravenous bolus 1 nanogram/kg
Description: The average dosages for Cerulitide were from 0.5 nanograms/kg body weight (i.v.) to 300 nonograms/kg body weight (intramusculary), depending upon the treated pains, as set forth in the following examples.

CSCC[C@H](NC(=O)[C@H](Cc1c[nH]c2ccccc12)NC(=O)CNC(=O)[C@@H](NC(=O)[C@H](Cc1ccc(OS(=O)(=O)O)cc1)NC(=O)[C@H](CC(=O)O)NC(=O)[C@H](CCC(N)=O)NC(=O)[C@@H]1CCC(=O)N1)[C@@H](C)O)C(=O)N[C@@H](CC(=O)O)C(=O)N[C@@H](Cc1ccccc1)C(N)=O [Ceruletide] ([pGlu]QD[sY]TGWMDF-NH2)
Side-effects [1]: None
Side-effects (intramuscular 0.05 micrograms/kg, first injection): None
Side-effects (intramuscular 0.1 micrograms/kg): None and Burning sensation at the injection site and pain sensation at the injection site
Side-effects (second intramuscular injection 0.05 micrograms/kg): None
